In patent US20240000872A1, “NOVEL BACTERIOPHAGE THAT LYSES ACINETOBACTER GENUS BACTERIA HAVING RESISTANCE TO ANTIBIOTICS” (priority 2020, published 2024):

Tested on: Acinetobacter baumannii strains
Assay: Antibiotic susceptibility test (CLSI disk diffusion test method, read per CLSI 2016); on antibiotic susceptibility S/I/R: key: ‘S’ means susceptible; ‘I’ means intermediate; ‘R’ means resistant; on susceptibility category (S/I/R): key: ‘S’ means susceptible; ‘I’ means intermediate; ‘R’ means resistant
Type: cell-based
Set-up: antibiotic susceptibility test value / susceptibility test value (number given before S/I/R) / antibiotic susceptibility value: unit not given here

## gentamicin
Host strain YMC17/02/B87
  antibiotic susceptibility S/I/R: S
  antibiotic susceptibility value: 2
  susceptibility category (S/I/R): S
  susceptibility test value (number given before S/I/R): 2
Host strain YMC17/02/B721
  antibiotic susceptibility S/I/R: R
  antibiotic susceptibility value: 16
  susceptibility category (S/I/R): R
  susceptibility test value (number given before S/I/R): 16
Host strain YMC17/02/B4039
  antibiotic susceptibility S/I/R: R
  antibiotic susceptibility value: 16
  susceptibility category (S/I/R): R
  susceptibility test value (number given before S/I/R): 16
Host strain YMC17/02/B4520
  antibiotic susceptibility S/I/R: R
  antibiotic susceptibility value: 16
  susceptibility category (S/I/R): R
  susceptibility test value (number given before S/I/R): 16
Host strain YMC17/02/B4864
  antibiotic susceptibility S/I/R: S
  antibiotic susceptibility value: 1
  susceptibility category (S/I/R): S
  susceptibility test value (number given before S/I/R): 1
Host strain YMC17/02/B8414
  antibiotic susceptibility S/I/R: R
  antibiotic susceptibility value: 16
  susceptibility category (S/I/R): R
  susceptibility test value (number given before S/I/R): 16
Host strain YMC17/02/P523
  antibiotic susceptibility S/I/R: S
  antibiotic susceptibility value: 4
  susceptibility category (S/I/R): S
  susceptibility test value (number given before S/I/R): 4
Host strain YMC17/02/R541
  antibiotic susceptibility S/I/R: R
  antibiotic susceptibility value: 16
  susceptibility category (S/I/R): R
  susceptibility test value (number given before S/I/R): 16
Host strain YMC17/02/R2392
  antibiotic susceptibility S/I/R: R
  antibiotic susceptibility value: 16
  susceptibility category (S/I/R): R
  susceptibility test value (number given before S/I/R): 16
Host strain YMC17/03/B4730
  antibiotic susceptibility S/I/R: R
  antibiotic susceptibility value: 16
  susceptibility category (S/I/R): R
  susceptibility test value (number given before S/I/R): 16
Host strain YMC17/03/B5000
  antibiotic susceptibility S/I/R: R
  antibiotic susceptibility value: 16
  susceptibility category (S/I/R): R
  susceptibility test value (number given before S/I/R): 16
Host strain YMC17/03/P971
  antibiotic susceptibility S/I/R: R
  antibiotic susceptibility value: 16
  susceptibility category (S/I/R): R
  susceptibility test value (number given before S/I/R): 16
Host strain YMC17/03/R348
  antibiotic susceptibility S/I/R: R
  antibiotic susceptibility value: 16
  susceptibility category (S/I/R): R
  susceptibility test value (number given before S/I/R): 16
Host strain YMC17/03/R585
  antibiotic susceptibility S/I/R: R
  antibiotic susceptibility value: 16
  susceptibility category (S/I/R): R
  susceptibility test value (number given before S/I/R): 16
Host strain YMC17/03/R1888
  antibiotic susceptibility S/I/R: R
  antibiotic susceptibility value: 16
  susceptibility category (S/I/R): R
  susceptibility test value (number given before S/I/R): 16
Host strain YMC17/03/R3279
  antibiotic susceptibility S/I/R: R
  antibiotic susceptibility value: 16
  susceptibility category (S/I/R): R
  susceptibility test value (number given before S/I/R): 16
Host strain YMC17/03/R4077
  antibiotic susceptibility S/I/R: R
  antibiotic susceptibility value: 16
  susceptibility category (S/I/R): R
  susceptibility test value (number given before S/I/R): 16
Host strain YMC17/03/R4607
  antibiotic susceptibility S/I/R: R
  antibiotic susceptibility value: 16
  susceptibility category (S/I/R): R
  susceptibility test value (number given before S/I/R): 16
Host strain YMC17/04/R488
  antibiotic susceptibility S/I/R: R
  antibiotic susceptibility value: 16
  susceptibility category (S/I/R): R
  susceptibility test value (number given before S/I/R): 16
Host strain YMC17/04/R640
  antibiotic susceptibility S/I/R: R
  antibiotic susceptibility value: 16
  susceptibility category (S/I/R): R
  susceptibility test value (number given before S/I/R): 16
Host strain YMC/17/05/R1095
  antibiotic susceptibility S/I/R: R
  antibiotic susceptibility value: 16
  susceptibility category (S/I/R): R
  susceptibility test value (number given before S/I/R): 16
